Test results taken from patent publication US11331375B2, “Compositions and methods for regulating leukocyte adhesion” (University of Virginia Patent Foundation, priority 2015, dated 2022).

Experiments:
[1] = tested on: paired mesenteric arterioles; assay: Ex vivo vascular perfusion ATP release assay, mesenteric arterioles; format: cell-based, mouse; details: TNFα 50 ng/mL
Protocol: (§1) For isolated blood vessel experiments, 2nd order venules or arterioles were dissected from the mouse mesentery circulation and cannulated on glass micropipettes to access the vessel lumen. […] Vessels were then perfused with MOPS PSS containing 300 μM ARL 67156 +/− pharmacological inhibitors and incubated for an additional 20 minutes prior to perfusion with MOPS PSS containing recombinant murine TNFα (R&D Systems). Aliquots of the lumenal perfusate were collected every 5 minutes for a 25-minute period and the ATP concentration was quantified by bioluminescence as described above. Data are expressed as mean±SEM (n=4 independent experiments).

Panx1 = assay: Western blot of pY198Panx1 in isolated mesenteric venules; format: cell-based, mouse; details: mesenteric venules perfused with TNFα 50 ng/mL 30 minutes
Protocol: Following stimulation with TNFα (in vitro: 10 ng/mL; ex vivo: 50 ng/mL), confluent endothelial cell monolayers or isolated mesenteric venules were homogenized in ice cold Triton extraction buffer (50 mM Tris-HCL, 150 mM NaCl , 5 mM EDTA, 1% deoxycholate, 1% NP-40 and 1% Triton-X100 in phosphate buffered saline and pH adjusted to 7.4) containing protease and phosphatase inhibitors. Cell/Tissue lysates were incubated with rotation at 4° C. for 20 minutes to solubilize proteins, followed by centrifugation for 5 minutes at 13,000× g to pellet cell debris. Protein concentration was quantified using the BCA method. 15-20 μg of total protein was subjected to SDS gel electrophoresis using 4-12% Bis-Tris gels (Invitrogen) and transferred to nitrocellulose membranes for immunoblotting. Membranes were blocked for 1 hr at room temperature with LiCOR blocking solution, then incubated overnight at 4° C. with primary antibodies against pY416SFKs, (BD Biosciences; 1:1000) pY198Panx1 (Alpha Diagnostic Intl (ADI); 1:1000) and GAPDH (Sigma; 1:10,000) or an antibody against the intracellular loop of Panx1 (Panx1-IL) (ADI; 1:1000) (normalization controls). Membranes were then washed and incubated with LiCOR secondary antibodies (1:10,000) and visualized and quantitated using LiCOR Odyssey. […] Data are expressed as mean±SEM (n=3 independent experiments).

HUVEC = assay: In vitro ATP release assay (luciferin:luciferase), HUVEC; format: cell-based, human
Protocol: (§2) In vitro Human arterial and venous ECs were seeded in 24-well plates pre-coated with 0.2% gelatin and grown to confluency. On the day of experiment, the media was removed from each well and cells were carefully washed twice with warm serum free basal EC medium supplemented with 1% BSA. Cells were then incubated in 300 μL of fresh basal EC medium supplemented with 1% BSA for 30 minutes at 37° C. to allow degradation of extracellular ATP released due to mechanical stimulation during washes. Endogenous ecto-nucleotidases were inhibited by incubating EC monolayers with 300 μM ARL 67156 (Tocris) for 30 minutes at 37° C. Cells were then stimulated with recombinant human TNFα (R&D Systems). For dose response experiments, ECs were incubated with 0.1, 1, 5, 10, 50, or 100 ng/mL recombinant TNFα for 30 minutes at 37° C. For time-course experiments, ECs were stimulated with 10 ng/mL recombinant TNFα for different time points up to 1 hour. In experiments where pharmacological inhibitors were employed, ECs were incubated with antagonists in parallel with ARL 67156 for 30 minutes. To inhibit TNFR1, ECs were incubated with the peptide antagonist of the receptor WP9QY (10 μM; Anaspec). […] Cx hemichannels were inhibited with lanthanum (La^3+; 100 μM; Sigma) and Panx1 channels were blocked with carbenoxolone (CBX; 50 μM; Sigma) and the inhibitory peptide ^10panx1 (200 μM; Genscript). […] The role of caspase activation was assessed by inhibition with the pan-caspase blocker Q-VD-OPh (100 μM; Sigma). Following stimulation with TNFα or vehicle, 150 μL of the cell supernatant was collected and immediately placed into pre-chilled 1.5 mL Eppendorf tubes on ice. All samples were centrifuged at 10,000×g for 5 minutes and 50 μL of each sample was transferred to a white, opaque 96-well plate. Using a FluoStar Omega luminometer, 50 μL of luciferin:luciferase reagent (ATP bioluminescence assay kit HSII; Roche) was injected into each well and luminescence was recorded following a 5s orbital mix. ATP concentration in each sample was calculated from a standard curve for all experiments. Data are presented as a % change in ATP release from baseline (i.e. unstimulated cells) and expressed as mean±SEM (n=5 independent experiments with triplicate measurements).

Src Family Kinases (SFK) = assay: Western blot of SFK activation (pY416SFK) in venous ECs; format: cell-based, human; details: HUVEC and HSaVEC; acute (5 minute) TNFα
Protocol: Following stimulation with TNFα (in vitro: 10 ng/mL; ex vivo: 50 ng/mL), confluent endothelial cell monolayers or isolated mesenteric venules were homogenized in ice cold Triton extraction buffer (50 mM Tris-HCL, 150 mM NaCl , 5 mM EDTA, 1% deoxycholate, 1% NP-40 and 1% Triton-X100 in phosphate buffered saline and pH adjusted to 7.4) containing protease and phosphatase inhibitors. Cell/Tissue lysates were incubated with rotation at 4° C. for 20 minutes to solubilize proteins, followed by centrifugation for 5 minutes at 13,000× g to pellet cell debris. Protein concentration was quantified using the BCA method. 15-20 μg of total protein was subjected to SDS gel electrophoresis using 4-12% Bis-Tris gels (Invitrogen) and transferred to nitrocellulose membranes for immunoblotting. Membranes were blocked for 1 hr at room temperature with LiCOR blocking solution, then incubated overnight at 4° C. with primary antibodies against pY416SFKs, (BD Biosciences; 1:1000) pY198Panx1 (Alpha Diagnostic Intl (ADI); 1:1000) and GAPDH (Sigma; 1:10,000) or an antibody against the intracellular loop of Panx1 (Panx1-IL) (ADI; 1:1000) (normalization controls). Membranes were then washed and incubated with LiCOR secondary antibodies (1:10,000) and visualized and quantitated using LiCOR Odyssey. To inhibit SFK activity, EC monolayers were incubated with the SFK inhibitor PP2 (Tocris; 10 μM). […] To show specificity for the phosphorylated form of SFKs and Panx1, cell lysates were incubated with alkaline phosphatase for 1 hour at 37° C. Western blot images have been cropped for presentation. Uncropped Western blots can be found in FIGS. 12-13. Data are expressed as mean±SEM (n=3 independent experiments).

HSaVEC = assay: In vitro ATP release assay (luciferin:luciferase), HSaVEC; format: cell-based, human; details: HSaVEC monolayers
Protocol: as §2

C57B1/6J mice = assay: Intravital microscopy of cremaster muscle for leukocyte adhesion and emigration; format: in vivo, mouse; details: topical TNFα on cremaster, after 120 minutes
Protocol: Mice were prepared for intravital microscopy of the cremaster muscle as described previously^25. Briefly, mice were anesthetized with ketamine hydrochloride (150 mg/kg, IP) and xylazine (7.5 mg/kg, IP). The cremaster was isolated, laid over a viewing pedestal, superfused with bicarbonate-buffered saline. After 30 min equilibration, a venule with a wall shear rate (WSR) of ≥500/s, diameter between 20 μm and 40 μm, and the least number of adherent and emigrated leukocytes was chosen for further study. A 1 min baseline recording was made, after which superfusion was stopped, and 50 μl TNFα (1.7 ng/ml in 0.1% BSA) or vehicle control was added under a saran wrap cover every 30 min. 1 min recordings were made just prior to each addition, for 3 hrs. The TNFα was initially reconstituted in PBS at 3.4 ng/ml and 150 μl aliquots were frozen. An aliquot was mixed 1:1 with BBS containing 0.2% BSA at the time of the experiment. Leukocyte adhesion and emigration were determined by off-line analysis. Leukocytes were considered adherent if they stopped for at least 30 s (expressed as #/mm^2 vessel wall), and emigrated leukocytes were leukocytes identified in the interstitium (expressed as #cells/mm^2 tissue). Data are expressed as mean±SEM (n=6-7 independent animals/group).

[2] = tested on: isolated murine mesenteric venules; assay: Ex vivo vascular perfusion ATP release assay, mesenteric venules; format: cell-based, mouse; details: lumenal perfusion
Protocol: as §1

Substance: TNFα
- ATP accumulation in the perfusate on cytokine perfusion [1]: absent
- phosphorylation of Panx1 (Panx1): promoted phosphorylation of Panx1
- TNFα dose with significant ATP release response (HUVEC; EC ATP release, range tested 0.1-100 ng/mL): ≥ 10 ng/mL
- ATP release on cytokine stimulation (HUVEC; HUVEC monolayers): significant increase
- TNFα concentration giving maximal accumulation of extracellular ATP (HUVEC; cultured venous ECs): 10 ng/mL
- time to maximal accumulation of extracellular ATP (HUVEC; cultured venous ECs, 10 ng/mL TNFα): approximately 10 minutes
- Y416 phosphorylation of SFK (Src Family Kinases (SFK)): significant increase
- ATP release on cytokine stimulation (HSaVEC): significant increase
- increase of leukocyte adhesion (C57B1/6J mice): ~2.5 fold
- increase of leukocyte emigration (C57B1/6J mice): ~3.5 fold
- ATP accumulation in the perfusate on cytokine perfusion [2]: time- and dose-dependent increase
